Read-outs that look alike come from different tables or passages of the source.
Target: T1, human TRPC5 (Homo sapiens, UniProt Q9UL62)
T1 construct: expressed in transfected cells; host or cells: HEK 293
T1 sequence (Q9UL62 1-973): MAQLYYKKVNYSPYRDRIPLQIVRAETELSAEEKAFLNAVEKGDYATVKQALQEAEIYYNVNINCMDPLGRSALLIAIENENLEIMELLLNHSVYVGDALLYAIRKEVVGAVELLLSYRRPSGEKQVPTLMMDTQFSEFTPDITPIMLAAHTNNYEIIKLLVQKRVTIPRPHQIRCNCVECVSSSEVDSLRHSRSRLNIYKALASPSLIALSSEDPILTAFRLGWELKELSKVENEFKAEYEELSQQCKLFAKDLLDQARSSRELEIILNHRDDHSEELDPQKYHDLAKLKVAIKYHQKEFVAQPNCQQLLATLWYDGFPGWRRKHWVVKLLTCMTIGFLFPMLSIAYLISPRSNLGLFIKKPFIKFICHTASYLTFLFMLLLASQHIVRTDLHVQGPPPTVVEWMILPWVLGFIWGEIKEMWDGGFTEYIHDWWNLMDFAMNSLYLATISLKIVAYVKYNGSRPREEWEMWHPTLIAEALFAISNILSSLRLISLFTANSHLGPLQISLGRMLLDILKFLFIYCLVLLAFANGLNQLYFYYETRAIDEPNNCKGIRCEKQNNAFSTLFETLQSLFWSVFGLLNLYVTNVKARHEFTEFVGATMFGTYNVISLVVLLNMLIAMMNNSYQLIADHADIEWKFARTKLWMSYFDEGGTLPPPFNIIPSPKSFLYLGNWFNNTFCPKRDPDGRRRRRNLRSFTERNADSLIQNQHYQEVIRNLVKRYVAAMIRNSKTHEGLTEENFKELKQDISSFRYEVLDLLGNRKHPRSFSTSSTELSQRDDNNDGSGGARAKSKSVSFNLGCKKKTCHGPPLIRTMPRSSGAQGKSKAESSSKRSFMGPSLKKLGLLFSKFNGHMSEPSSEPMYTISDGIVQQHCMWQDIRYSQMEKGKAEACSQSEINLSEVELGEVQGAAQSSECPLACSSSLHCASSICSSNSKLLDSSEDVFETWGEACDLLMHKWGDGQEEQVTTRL
Experiment: Automated patch clamp assay (QPatch), current block after stimulation with rosiglitazone
Format: cell-based
Details: HEK293 cells overexpressing TRPC5, whole cell automated patch
Procedure: HEK 293 cells expressing human TRPC5 were harvested, re-suspended in serum free medium, and added to the automated platform and used within 2-3 hours. Internal and external physiological solutions were freshly prepared prior to the assay. The external solution contained: 145 mM NaCl, 4 mM KCl, 2 mM CaCl2), 1 mM MgCl2, 10 mM HEPES, 10 mM glucose, pH 7.4 with NaOH and 300 mOsm/L. The internal solution contained 120 mM L-aspartic acid, 120 mM CsOH.H2O, 20 mM CsCl, 2 mM MgCl2, 8.8 mM CaCl2), 10 mM EGTA, 10 mM HEPES, 10 mM Glucose, 0.1 mM GTP and 2 mM Na2ATP; pH 7.2 with CsOH and 290 mOsm/L. The free internal Ca2+ concentration was buffered to 1 μM.
The automated electrophysiological platform QPatch 16 from Sophion (Denmark) was used to carry out the compounds profiling. The series resistance and quality of seals were continuously monitored during the experiments. Data was analyzed using Sophion QPatch assay software 5.6 (Odense). IC50 values were calculated using a least squares regression algorithm (Hill equation).
To monitor the ion currents, a voltage ramp from −100 mV to +100 mV, over 300 ms, was applied every 10 seconds, from a holding potential of −60 mV.
After recording for a minimum of 60 seconds control period, Rosiglitazone (30 uM), was applied to activate the channel.

[1] = 80 mV, 1-substituted 7-azaindoles, read-out: TRPC5 IC50 80 mV
[2] = 100 mV, 1-substituted 7-azaindoles, read-out: TRPC5 IC50 100 mV
[3] = 100 mV, 7-substituted 7-azaindoles, read-out: TRPC5 IC50 100 mV

SMILES | IC50 [1] | IC50 [2] | IC50 [3]
CCN(CC)Cc1cc2cccnc2n1Cc1ccccc1 | 6.24 µM | 4.19 µM | –
COC(C)(C)Cc1cc2cccnc2n1Cc1ccccc1 | 13.8 µM | 8.52 µM | –
c1ccc(Cn2c(CN3CCCC3)cc3cccnc32)cc1 | 17 µM | 16.6 µM | –
CN(C)Cc1cc2cccnc2n1Cc1ccccc1 | 18.3 µM | 21.6 µM | –
Clc1ccc(Cn2c(CN3CCCC3)cc3cccnc32)cc1 | 23.6 µM | 25.2 µM | –
CC(C)(C)c1cc2cccnc2n1Cc1ccc(Cl)cc1 | > 30 µM | – | –
CC(C)(C)Cc1cc2cccnc2n1Cc1ccccc1 | > 30 µM | > 30 µM | –
OCCc1cc2cccnc2n1Cc1ccccc1 | > 30 µM | > 30 µM | –
CN(C)CCc1cc2cccnc2n1Cc1ccccc1 | > 30 µM | > 30 µM | –
CC(C)(O)Cc1cc2cccnc2n1Cc1ccccc1 | > 30 µM | > 30 µM | –
COCCc1cc2cccnc2n1Cc1ccccc1 | > 30 µM | > 30 µM | –
CC(C)(C)c1cc2cccnc2n1Cc1ccc(Cl)cc1C#N | > 30 µM | – | –
COC(C)(C)c1cc2cccnc2n1Cc1ccccc1 | > 30 µM | > 30 µM | –
Cc1cc2cccnc2n1Cc1ccccc1 | > 30 µM | – | –
Cc1cc2cccnc2n1Cc1ccc(Cl)cc1 | > 30 µM | – | –
OCc1cc2cccnc2n1Cc1ccccc1 | > 30 µM | > 30 µM | –

SMILES | IC50 [1] | IC50 [2] | IC50 [3]
Cc1ncc(Cn2c(C(C)(C)C)cc3cccnc32)cn1 | > 30 µM | – | –
CC(C)(C)c1cc2c(OCCCO)ccnc2n1Cc1ccccc1 | > 30 µM | > 30 µM | –
CC(C)(C)c1cc2ccc(OCCO)nc2n1Cc1ccccc1 | > 30 µM | – | –
CC(C)(C)c1cc2cc(OCCCO)cnc2n1Cc1ccccc1 | > 30 µM | > 30 µM | –
CC(C)(C)c1cc2ccc(OCCCO)nc2n1Cc1ccccc1 | > 30 µM | – | –
CC(C)(C)c1cc2cccnc2n1CC1CCCCC1 | > 30 µM | – | –
CC(C)(C)c1cc2cccnc2n1CCc1ccccc1 | > 30 µM | – | –
CC(C)(C)c1cc2cccnc2n1CCOc1ccccc1 | > 30 µM | – | –
CC(C)(C)c1cc2cccnc2n1CC1CCOCC1 | > 30 µM | – | –
CC(C)(C)c1cc2cccnc2n1CCCc1ccccc1 | > 30 µM | – | –
CC(C)Cc1cc2cccnc2n1Cc1ccccc1 [drawing 72] | > 30 µM | – | –
CC(C)Cc1cc2cccnc2n1Cc1ccccc1 [drawing 73] | – | > 30 µM | –
CC(C)(O)c1cc2cccnc2n1Cc1ccccc1 [drawing 80] | > 30 µM | – | –
CC(C)(O)c1cc2cccnc2n1Cc1ccccc1 [drawing 81] | – | > 30 µM | –
CC(C)(C)c1cc2cccnc2n1C[C@H]1CC[C@H](C)CC1 [drawing 112] | > 30 µM | – | –
CC(C)(C)c1cc2cccnc2n1C[C@H]1CC[C@H](C)CC1 [drawing 113] | – | > 30 µM | –

Second part, the compound after the results:

IC50 [1] | IC50 [2] | IC50 [3] | SMILES
19.6 µM | 19.1 µM | – | Cn1nc(C(F)(F)F)cc1Cn1c(C(C)(C)C)cc2cccnc21
> 30 µM | > 30 µM | – | C[C@@H](c1ccccc1)n1c(C(C)(C)C)cc2cccnc21
> 30 µM | – | – | CC(c1ccccc1)n1c(C(C)(C)C)cc2cccnc21 (stereo not drawn)
> 30 µM | > 30 µM | – | C[C@H](c1ccccc1)n1c(C(C)(C)C)cc2cccnc21
> 30 µM | – | – | Cc1ccnc2c1cc(C(C)(C)C)n2Cc1ccccc1
> 30 µM | > 30 µM | – | COc1ccc(Cn2c(C(C)(C)C)cc3cccnc32)cc1
> 30 µM | – | – | Cc1ccc2cc(C(C)(C)C)n(Cc3ccccc3)c2n1
> 30 µM | > 30 µM | – | COc1cccc(Cn2c(C(C)(C)C)cc3cccnc32)c1
> 30 µM | > 30 µM | – | CC(C)(C)c1cc2cccnc2n1Cc1cncc(F)c1
> 30 µM | > 30 µM | – | CC(C)(C)c1cc2cccnc2n1Cc1ccncc1
> 30 µM | > 30 µM | – | CC(C)(C)c1cc2cccnc2n1Cc1cccnc1
> 30 µM | – | – | COc1cc(Cl)ccc1Cn1c(C(C)(C)C)cc2cccnc21
> 30 µM | – | – | Cc1ccc2cc(C(C)(C)C)n(C(=O)c3ccccc3)c2n1
> 30 µM | – | – | CC(C)(C)c1cc2cccnc2n1Cc1ccc(Cl)cn1
> 30 µM | > 30 µM | – | Cn1cc(Cn2c(C(C)(C)C)cc3cccnc32)cn1
> 30 µM | > 30 µM | – | Cc1nn(C)cc1Cn1c(C(C)(C)C)cc2cccnc21
> 30 µM | > 30 µM | – | Cc1noc(C)c1Cn1c(C(C)(C)C)cc2cccnc21
> 30 µM | > 30 µM | – | Cn1cc(Cn2c(C(C)(C)C)cc3cccnc32)c(C(F)(F)F)n1
> 30 µM | – | – | CN1CCC(Cn2c(C(C)(C)C)cc3cccnc32)CC1
> 30 µM | – | – | CC(C)(C)c1cc2cccnc2n1CC1CCNCC1
> 30 µM | – | – | CC(C)(C)c1cc2cccnc2n1CC1CCN(Cc2ccccc2)CC1

IC50 [1] | IC50 [2] | IC50 [3] | SMILES
> 30 µM | – | – | CC(=O)N1CCC(Cn2c(C(C)(C)C)cc3cccnc32)CC1
> 30 µM | – | – | CC(C)(C)c1cc2cccnc2n1CC1CCN(S(C)(=O)=O)CC1
– | – | 5.47 µM | COc1ccc(Cn2cccc3cc(C(C)(C)C)nc2-3)cc1
– | – | 7.64 µM | CC(C)(C)c1cc2cccn(Cc3cncc(F)c3)c-2n1
– | – | 9.79 µM | Cn1cc(Cn2cccc3cc(C(C)(C)C)nc2-3)cn1
– | – | 10.4 µM | Cn1cc(Cn2cccc3cc(C(C)(C)C)nc2-3)c(C(F)(F)F)n1
– | – | 12.2 µM | Cn1nc(C(F)(F)F)cc1Cn1cccc2cc(C(C)(C)C)nc1-2
– | – | 15.6 µM | Cc1noc(C)c1Cn1cccc2cc(C(C)(C)C)nc1-2
– | – | 17.6 µM | Cc1nn(C)cc1Cn1cccc2cc(C(C)(C)C)nc1-2
– | – | > 30 µM | CC(C)(C)c1cc2cccn(Cc3ccncc3)c-2n1
3.51 µM | – | – | CC(C)(C)c1cc2cccnc2n1Cc1ccccc1 [drawing 63]
7.07 µM | – | – | CC(C)(C)c1cc2cccnc2n1Cc1ccccc1 [drawing 65]
– | – | 6.02 µM | CC(C)(C)c1cc2cccn(Cc3ccc(Cl)cc3)c-2n1 [drawing 125]
– | – | 8.1 µM | CC(C)(C)c1cc2cccn(Cc3ccc(Cl)cc3)c-2n1 [drawing 127]
– | – | 8.57 µM | COc1cccc(Cn2cccc3cc(C(C)(C)C)nc2-3)c1 [drawing 128]
– | – | 10.2 µM | COc1cccc(Cn2cccc3cc(C(C)(C)C)nc2-3)c1 [drawing 130]
– | – | 14 µM | CC(C)(C)c1cc2cccn(Cc3cccnc3)c-2n1 [drawing 133]
– | – | 14.4 µM | CC(C)(C)c1cc2cccn(Cc3cccnc3)c-2n1 [drawing 134]
– | – | 22.2 µM | CC(C)(C)c1cc2cccn(C[C@H]3CC[C@H](C)CC3)c-2n1 [drawing 137]
– | – | 24.5 µM | CC(C)(C)c1cc2cccn(C[C@H]3CC[C@H](C)CC3)c-2n1 [drawing 138]
